MIC data for four compounds are collected here from patent US3974140A, “Ureidoacetamido-penicillins” (Bayer Aktiengesellschaft, priority 1970, dated 1976).

A value given as a limit tells only on which side of the number the result lay.

Holding throughout (assay): MIC, liquid medium test tube series dilution test
Assay [1] relates to E. coli 14. The assay is classed as cell-based. The settings on record: E. coli 14, 24 hours, 37°C. A digest of the protocol:
(§1)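 Penicillins were serially diluted in test tubes of complete liquid medium, inoculated, incubated 24 hours at 37°C, and inspected; the non-turbid tube of the series marked the minimum inhibitory concentration (units/ml).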

The subject of assay [2] is E. coli 183/58. The assay is classed as cell-based. Conditions: E. coli 183/58, 24 hours, 37°C. A digest of the protocol: as §1
Assay [3] relates to E. coli A 261. The assay is classed as cell-based. The settings on record: E. coli A 261, 24 hours, 37°C. The method in brief: as §1
Assay [4] has as its system E. coli C 165. It is filed as cell-based. The settings on record: E. coli C 165, 24 hours, 37°C. A digest of the protocol:
as §1

Assay [5] deals with Klebsiella 63. The assay is classed as cell-based. The settings on record: Klebsiella 63, 24 hours, 37°C. A digest of the protocol:
as §1

The subject of assay [6] is Klebsiella K 10. It is filed as cell-based. The settings on record: Klebsiella K 10, 24 hours, 37°C. A digest of the protocol: as §1
Assay [7] deals with Streptoc. faec. ATCC 9790. It is filed as cell-based. The settings on record: Strep. faec. (Enterococcus) ATCC 9790, 24 hours, 37°C. The method in brief:
as §1

Assay [8] has as its system Proteus vulg. 1017. It is filed as cell-based, Proteus vulgaris. Conditions: Proteus vulg. 1017, 24 hours, 37°C. The method in brief:
as §1

Assay [9] has as its system Proteus vulg. 3400. It is filed as cell-based, Proteus vulgaris. Conditions: Proteus vulg. 3400, 24 hours, 37°C. The method in brief:
as §1

Assay [10] deals with Psdm. aerug. Bonn. The assay is classed as cell-based, Pseudomonas aerug. Conditions: 24 hours, 37°C. A digest of the protocol: as §1
Assay [11] has as its system Psdm. aerug. Walter. The assay is classed as cell-based, Pseudomonas aerug. The settings on record: 24 hours, 37°C. The method in brief:
as §1

Assay [12] deals with Staph. aureus 133. It is filed as cell-based, Staphylococcus aureus. The settings on record: Staph. aureus 133, 24 hours, 37°C. A digest of the protocol:
as §1

Assay [13] relates to Staph. aureus 1777 E. It is filed as cell-based, Staphylococcus aureus. Conditions: 24 hours, 37°C. A digest of the protocol:
as §1

On to `COC(=O)N(C)C(=O)N[C@@H](C(=O)N[C@@H]1C(=O)N2[C@@H]1SC(C)(C)[C@@H]2C(=O)O)c1ccccc1` [Example 10 B], for which the MIC in assay [1] (listed as 10 B) is on record as 12.5 units/ml; in assay [1] (listed as (A) of Example 10), 12.5 units/ml; in assay [2] (listed as 10 B), 50 units/ml; in assay [2] (listed as (A) of Example 10), 50 units/ml; in assay [3] it was greater than 400 units/ml; in [4] (listed as 10 B), 50 units/ml. The MIC came to 50 units/ml in assay [5] (listed as 10 B); 200 units/ml in assay [5] (listed as (A) of Example 10); 50 units/ml in [6] (listed as 10 B); 200 units/ml in assay [6] (listed as (A) of Example 10); 100 units/ml in [7] (listed as 10 B); 200 units/ml in [8] (listed as 10 B). For the same compound, the MIC in [9] (listed as 10 B) turned out to be 200 units/ml; in assay [10] (listed as 10 B), 200 units/ml; in assay [10] (listed as (A) of Example 10), 50 units/ml; in [11] (listed as 10 B) it was 200 units/ml; in assay [11] (listed as (A) of Example 10), 50 units/ml; in [12] (listed as 10 B), 1.6 units/ml. The MIC is 1.56 units/ml in assay [12] (listed as (A) of Example 10) and 400 units/ml in assay [13].

Take `CC(C)OC(=O)N(C)C(=O)N[C@@H](C(=O)N[C@@H]1C(=O)N2[C@@H]1SC(C)(C)[C@@H]2C(=O)O)c1ccccc1` [Example 11 C, Sodium D(-)-α-(3-isopropoxycarbonyl-3-methyl-ureido)-benzyl-penicillin]: the MIC in [1] (listed as 11 C) is listed as 6.3 units/ml; in assay [1] (listed as (A) of Example 11) it was 6.25 units/ml; in [2] (listed as 11 C) it was 12.5 units/ml; in assay [2] (listed as (A) of Example 11), 12.5 units/ml; in assay [3] it was greater than 400 units/ml; in [4] (listed as 11 C), 50 units/ml. Moreover, the MIC in assay [4] (listed as (A) of Example 11) was found to be 50 units/ml; in assay [5] (listed as 11 C), 100 units/ml; in assay [6] (listed as 11 C) it was 50 units/ml; in assay [7], 200 units/ml; in [8] (listed as 11 C), 100 units/ml; in assay [9] (listed as 11 C) it was 100 units/ml. Also, the MIC is on record as 400 units/ml in assay [10] (listed as 11 C); 50 units/ml in assay [10] (listed as (A) of Example 11); 200 units/ml in assay [11] (listed as 11 C); 100 units/ml in [11] (listed as (A) of Example 11); 1.6 units/ml in assay [12]; 400 units/ml in assay [13].

In the case of `CCCCOC(=O)N(C)C(=O)N[C@@H](C(=O)N[C@@H]1C(=O)N2[C@@H]1SC(C)(C)[C@@H]2C(=O)O)c1ccccc1` [Example 12, Sodium D(-)-α-(3-n-butoxycarbonyl-3-methyl-ureido)-benzylpenicillin], the MIC in [1] is listed as 6.3 units/ml; in assay [2] it was 12.5 units/ml; in [3], greater than 400 units/ml; in [4], 50 units/ml; in assay [5] it was 100 units/ml; in assay [6], 50 units/ml. The MIC worked out at 200 units/ml in assay [7]; 100 units/ml in assay [8]; 100 units/ml in assay [9]; 400 units/ml in assay [10]; 200 units/ml in assay [11]; 1.6 units/ml in assay [12]. For the same compound, in assay [13], the MIC is 400 units/ml.

On to `Cc1ccc(C(NC(=O)N2CCNC2=O)C(=O)N[C@@H]2C(=O)N3[C@@H]2SC(C)(C)[C@@H]3C(=O)O)cc1` (stereo partly drawn) [Example 45, Sodium α-[(imidazolidin-2-on-1-yl)-carbonylamino]-p-methylbenzylpenicillin], for which the MIC in assay [1] is recorded as 6,25 units/ml; in assay [2], 6,25 units/ml; in [3], greater than 400 units/ml; in assay [4], 25 units/ml; in assay [5], 100 units/ml; in [6], 100 units/ml. Besides, the MIC in assay [7] is given as 50 units/ml; in assay [8] it was 100 units/ml; in [9], 100 units/ml; in [10] it was 25 units/ml; in [11], 12,5 units/ml; in assay [12], < 0,78 units/ml. The compound also registered an MIC in assay [13] of 400 units/ml.
